Patent US6291432A (Japan Energy Corporation, priority 1996, dated 2001)

molecular target: T1, recombinant HIV-1 protease (Human immunodeficiency virus type 1 group M subtype B, UniProt P04585); assay: HIV protease inhibition activity (enzyme activity inhibition rate); format: biochemical; settings: 50 nM final concentration of test compound; 60 min at 37° C.
T1 construct: measured using a recombinant HIV-1 protease
Protocol: The protease activity was measured using a recombinant HIV-1 protease (see Biochemistry, 250 (9)-264 (1990)) and a synthesized peptide substrate. The inhibition rate was calculated by determining a peptide fragment generated by cleavage between Tyr-Pro of the synthesized substrate after the reaction of 60 min at 37° C. using a reversed phase HPLC in the presence of the test compounds in various concentrations (see, for example, Japanese Patent Application Laid-open No. 170722/1993).
Examples of the evaluation results of the HIV protease inhibition activity of the tripeptide compound of the present invention by the above-described method is shown in Table 1. […] The concentration of the test compounds in Table 1 represents the final concentration in the reaction mixture.

Row | Compound | Enzyme activity inhibition rate (%) (addition concentration of 50 nM)
1 | Cc1ccccc1CNC(=O)[C@H]1N(C(=O)[C@@H](O)[C@H](Cc2ccccc2)NC(=O)[C@@H](NC(=O)c2cc(=O)c3ccccc3o2)C(C)C)CSC1(C)C [Example 12, (R)-N-(2-methylbenzyl)-3-{(2S,3S)-3-[N-(2-chromonecarbonyl)-L-valyl]amino-2-hydroxy-4-phenylbutanoyl}-5,5-dimethyl-1,3-thiazolidine-4-carboxamide] | 97.4%
2 | CC[C@H](NC(=O)COc1ccc2ncccc2c1)C(=O)N[C@@H](Cc1ccccc1)[C@H](O)C(=O)N1CSC(C)(C)[C@H]1C(=O)NCc1ccccc1C [Example 24, (R)-N-(2-methylbenzyl)-3-{(2S,3S)-2-hydroxy-3-[(S)-2-(6-quinolinyloxyacetyl)aminobutanoyl]amino-4-phenylbutanoyl}-5,5-dimethyl-1-thiazolidine-4-carbox amide] | 98.1%
3 | CC[C@H](NC(=O)COc1cccc(N(C)C)c1)C(=O)N[C@@H](Cc1ccccc1)[C@H](O)C(=O)N1CSC(C)(C)[C@H]1C(=O)NCc1ccccc1C [Example 25, (R)-N-(2-methylbenzyl)-3-{(2S,3S)-2-hydroxy-3-[(S)-2-(3-dimethylaminophenoxyacetyl)aminobutanoyl]amino-4-phenylbutanoyl}-5,5-dimethyl-1-thiazolidine-4-carboxamide] | 99.9%

same assay, conditions: 50 nM final concentration of test compound; 60 min at 37° C.; read-out: Enzyme activity inhibition rate (%) (addition concentration of 50 nM)

Row | Compound | inhibition at 0.05 µM
4 | Cc1ccccc1CNC(=O)[C@@H]1CSCN1C(=O)[C@@H](O)[C@H](Cc1ccccc1)NC(=O)[C@H](CC(N)=O)NC(=O)OCc1ccccc1 [Example 2, (R)-N-(2-methylbenzyl)-3-{(2S,3S)-3-[N-(benzyloxycarbonyl)-L-asparaginyl]amino-2-hydroxy-4-phenylbutanoyl}-1,3-thiazolidine-4-carboxamide] | 71.7%
5 | Cc1ccccc1CNC(=O)[C@H]1N(C(=O)[C@@H](O)[C@H](Cc2ccccc2)NC(=O)[C@@H](NC(=O)OCc2ccccc2)C(C)C)CSC1(C)C [Example 4, (R)-N-(2-methylbenzyl)-3-{(2S,3S)-3-[N-(benzyloxycarbonyl)-L-valyl]amino-2-hydroxy-4-phenylbutanoyl}-5,5-dimethyl-1,3-thiazolidine-4-carboxamide] | 95.3%
6 | CC1(C)SCN(C(=O)[C@@H](O)[C@H](Cc2ccccc2)NC(=O)[C@H](CC(N)=O)NC(=O)OCc2ccccc2)[C@@H]1C(=O)NCc1ccccc1Cl [Example 5, (R)-N-(2-chlorobenzyl)-3-{(2S,3S)-3-[N-(benzyloxycarbonyl)-L-asparaginyl]amino-2-hydroxy-4-phenylbutanoyl}-5,5-dimethyl-1,3-thiazolidine-4-carboxamide] | 98.4%
7 | Cc1ccccc1CNC(=O)[C@H]1N(C(=O)[C@@H](O)[C@H](Cc2ccccc2)NC(=O)[C@@H](NC(=O)COc2cccc3cnccc23)C(C)C)CSC1(C)C [Example 8, (R)-N-(2-methylbenzyl)-3-{(2S,3S)-3-[N-(5-isoquinolinyloxyacetyl)-L-valyl]amino-2-hydroxy-4-phenylbutanoyl}-5,5-dimethyl-1,3-thiazolidine-4-carboxamide] | 97.7%
8 | Cc1ccccc1CNC(=O)[C@@H]1[C@@H](C)OCN1C(=O)[C@@H](O)[C@H](Cc1ccccc1)NC(=O)[C@H](CC(N)=O)NC(=O)OCc1ccccc1 [Example 9, (4S,5R)-N-(2-methylbenzyl)-3-{(2S,3S)-3-[N-(benzyloxycarbonyl)-L-asparaginyl]amino-2-hydroxy-4-phenylbutanoyl}-5-methyl-1,3-oxazolidine-4-carboxamide] | 61.9%
9 | Cc1ccccc1CNC(=O)[C@H]1N(C(=O)[C@@H](O)[C@H](Cc2ccccc2)NC(=O)[C@@H](NC(=O)c2cc3ccccc3o2)C(C)C)CSC1(C)C [Example 11, (R)-N-(2-methylbenzyl)-3-{(2S,3S)-3-[N-(2-benzofurancarbonyl)-L-valyl]amino-2-hydroxy-4-phenylbutanoyl}-5,5-dimethyl-1,3-thiazolidine-4-carboxamide] | 97.1%
10 | Cc1ccccc1CNC(=O)[C@H]1N(C(=O)[C@@H](O)[C@H](Cc2ccccc2)NC(=O)[C@@H](NC(=O)c2ccc3ccccc3n2)C(C)C)CSC1(C)C [Example 13, (R)-N-(2-methylbenzyl)-3-{(2S,3S)-3-[N-(2-quinolinecarbonyl)-L-valyl]amino-2-hydroxy-4-phenylbutanoyl}-5,5-dimethyl-1,3-thiazolidine-4-carboxamide] | 96.6%
11 | Cc1ccccc1CNC(=O)[C@H]1N(C(=O)[C@@H](O)[C@H](Cc2ccccc2)NC(=O)[C@@H](NC(=O)c2nc3ccccc3s2)C(C)C)CSC1(C)C [Example 14, (R)-N-(2-methylbenzyl)-3-{(2S,3S)-3-[N-(2-benzothiazolecarbonyl)-L-valyl]amino-2-hydroxy-4-phenylbutanoyl}-5,5-dimethyl-1,3-thiazolidine-4-carboxamide] | 95.8%
12 | Cc1ccccc1CNC(=O)[C@H]1N(C(=O)[C@@H](O)[C@H](Cc2ccccc2)NC(=O)[C@@H](NC(=O)c2nc3ccccc3[nH]2)C(C)C)CSC1(C)C [Example 15, (R)-N-(2-methylbenzyl)-3-{(2S,3S)-3-[N-(2-benzimidazolecarbonyl)-L-valyl]amino-2-hydroxy-4-phenylbutanoyl}-5,5-dimethyl-1,3-thiazolidine-4-carboxamide] | 92.8%
13 | Cc1ccccc1CNC(=O)[C@H]1N(C(=O)[C@@H](O)[C@H](Cc2ccccc2)NC(=O)[C@H](CC(N)=O)NC(=O)c2cnc3ccccc3n2)CSC1(C)C [Example 18, (R)-N-(2-methylbenzyl)-3-{(2S,3S)-3-[N-(2-quinoxalinecarbonyl)-L-asparaginyl]amino-2-hydroxy-4-phenylbutanoyl}-5,5-dimethyl-1,3-thiazolidine-4-carboxamide] | 98.8%
14 | Cc1ccccc1CNC(=O)[C@H]1N(C(=O)[C@@H](O)[C@H](Cc2ccccc2)NC(=O)[C@@H](NC(=O)c2cnc3ccccc3n2)C(C)C)CSC1(C)C [Example 19, (R)-N-(2-methylbenzyl)-3-{(2S,3S)-3-[N-(2-quinoxalinecarbonyl)-L-valyl]amino-2-hydroxy-4-phenylbutanoyl}-5,5-dimethyl-1,3-thiazolidine-4-carboxamide] | 97.3%
15 | COc1cccc2cc(C(=O)N[C@@H](C)C(=O)N[C@@H](Cc3ccccc3)[C@H](O)C(=O)N3CSC(C)(C)[C@H]3C(=O)NCc3ccccc3C)oc12 [Example 20, (R)-N-(2-methylbenzyl)-3-{(2S,3S)-2-hydroxy-3-[(S)-2-(7-methoxy-2-benzofurancarbonyl)aminopropanoyl]amino-4-phenylbutanoyl}-5,5-dimethyl-1,3-thiazolidine-4-carboxamide] | 97.6%
16 | Cc1ccccc1CNC(=O)[C@H]1N(C(=O)[C@@H](O)[C@H](Cc2ccccc2)NC(=O)[C@@H](NC(=O)c2cnc3ccccc3c2)C(C)C)CSC1(C)C [Example 21, (R)-N-(2-methylbenzyl)-3-{(2S,3S)-2-hydroxy-3-[(S)-2-(3-quinolinecarbonyl)amino-3-methylbutanoyl]amino-4-phenylbutanoyl}-5,5-dimethyl-1,3-thiazolidine-4-carboxamide] | 97.7%
17 | Cc1ccccc1CNC(=O)[C@H]1N(C(=O)[C@@H](O)[C@H](Cc2ccccc2)NC(=O)[C@@H](NC(=O)COc2cccc(N(C)C)c2)C(C)C)CSC1(C)C [Example 22, (R)-N-(2-methylbenzyl)-3-{(2S,3S)-2-hydroxy-3-[(S)-2-(3-dimethylaminophenoxyacetyl)amino-3-methylbutanoyl]amino-4-phenylbutanoyl}-5,5-dimethyl-1,3-thi azolidine-4-carboxamide] | 97.6%
18 | Cc1ccccc1CNC(=O)[C@H]1N(C(=O)[C@@H](O)[C@H](Cc2ccccc2)NC(=O)[C@@H](NC(=O)COc2cccc3ncccc23)C(C)C)CSC1(C)C [Example 23, (R)-N-(2-methylbenzyl)-3-{(2S,3S)-2-hydroxy-3-[(S)-2-(5-quinolinyloxyacetyl)amino-3-methylbutanoyl]amino-4-phenylbutanoyl}-5,5-dimethyl-1,3-thiazolidine-4-carboxamide] | 98.5%
19 | Cc1ccccc1CNC(=O)[C@H]1N(C(=O)[C@@H](O)[C@H](Cc2ccccc2)NC(=O)[C@H](C)NC(=O)COc2cccc(N(C)C)c2)CSC1(C)C [Example 26, (R)-N-(2-methylbenzyl)-3-{(2S,3S)-2-hydroxy-3-[(S)-2-(3-dimethylaminophenoxyacetyl)aminopropanoyl]amino-4-phenylbutanoyl}-5,5-dimethyl-1,3-thiazolidine-4-carboxamide] | 99.9%
20 | CCOC(=O)N[C@H](C(=O)N[C@@H](Cc1ccccc1)[C@H](O)C(=O)N1CSC(C)(C)[C@H]1C(=O)NCc1ccccc1C)C(C)C [Example 29, (R)-N-(2-methylbenzyl)-3-{(2S,3S)-2-hydroxy-3-[(S)-2-(ethoxycarbonyl)amino-3-methylbutanoyl]amino-4-phenylbutanoyl}-5,5-dimethyl-1,3-thiazolidine-4-ca rboxamide] | 93%
21 | COCCOC(=O)N[C@H](C(=O)N[C@@H](Cc1ccccc1)[C@H](O)C(=O)N1CSC(C)(C)[C@H]1C(=O)NCc1ccccc1C)C(C)C [Example 30, (R)-N-(2-methylbenzyl)-3-{(2S,3S)-2-hydroxy-3-[(S)-2-(methoxyethoxycarbonyl)amino-3-methylbutanoyl]amino-4-phenylbutanoyl}-5,5-dimethyl-1,3-thiazolidine-4-carboxamide] | 94.2%
